In patent publication US5981576A, “(Methylsulfonyl)phenyl-2-(5H)-furanones as COX-2 inhibitors” (Merck Frosst Canada, Inc., priority 1998, dated 1999):

Target: T1, COX-2 (Homo sapiens, UniProt P35354)
T1 sequence (P35354 18-604): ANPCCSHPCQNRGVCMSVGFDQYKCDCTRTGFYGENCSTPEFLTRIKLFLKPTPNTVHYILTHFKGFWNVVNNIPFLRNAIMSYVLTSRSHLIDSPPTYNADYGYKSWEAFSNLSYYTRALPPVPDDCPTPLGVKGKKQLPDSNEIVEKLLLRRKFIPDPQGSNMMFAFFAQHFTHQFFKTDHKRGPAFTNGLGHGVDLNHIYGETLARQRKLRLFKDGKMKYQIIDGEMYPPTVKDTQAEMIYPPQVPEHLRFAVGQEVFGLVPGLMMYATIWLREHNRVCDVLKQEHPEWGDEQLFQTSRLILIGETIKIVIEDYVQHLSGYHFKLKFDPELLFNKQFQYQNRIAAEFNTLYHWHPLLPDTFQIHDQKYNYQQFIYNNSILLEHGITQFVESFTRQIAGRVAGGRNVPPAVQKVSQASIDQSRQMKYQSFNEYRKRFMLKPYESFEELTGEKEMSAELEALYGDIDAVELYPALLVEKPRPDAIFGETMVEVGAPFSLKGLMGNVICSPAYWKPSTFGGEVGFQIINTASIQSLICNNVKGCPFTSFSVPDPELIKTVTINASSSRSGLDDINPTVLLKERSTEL
Test: cell-based
Details: Table IV; human whole blood, LPS-induced PGE2; read-out: COX-2 (IC50, μM) HWB
From the text: (§1) As well, platelets in whole blood contain a large amount of the COX-1 enzyme. Immediately following blood clotting, platelets are activated through a thrombin-mediated mechanism. […] Therefore, the degree of selectivity by the test compound can be determined by measuring the levels of PGE2 after LPS induction (COX-2) and TxB2 following blood clotting (COX-1) in the same assay.
A. COX-2 (LPS-induced PGF, production)
Fresh blood is collected in heparinized tubes by venipuncture from both male and female volunteers. The subjects have no apparent inflammatory conditions and have not taken any NSAIDs for at least 7 days prior to blood collection. Plasma is immediately obtained from a 2 mL blood aliquot to use as blank (basal levels of PGE2).

SMILES | IC50 [µM]
CC1(C)OC(=O)C(Oc2ccc(C(C)(C)O)cc2)=C1c1ccc(S(C)(=O)=O)cc1 [Example 191] | 4.3
Cc1ncc(OC2=C(c3ccc(S(C)(=O)=O)cc3)C(C)(C)OC2=O)cc1Br [Example 137] | 5.2
CC1(COC2=C(c3ccc(S(C)(=O)=O)cc3)C(C)(C)OC2=O)CC1 [Example 173] | < 0.41
C[C@]1(CC(F)(F)F)OC(=O)C(Oc2ccc(Cl)cn2)=C1c1ccc(S(C)(=O)=O)cc1 [Example 130, (5R)-3-(5-Chloro-2-pyridyloxy)-5-methyl-4-(4-methylsulfonyl)phenyl-5-(2,2,2-trifluoroethyl)-5H-furan-2-one] | < 0.41

Target: T2, COX-1 (Homo sapiens, UniProt P23219)
T2 sequence (P23219 24-599): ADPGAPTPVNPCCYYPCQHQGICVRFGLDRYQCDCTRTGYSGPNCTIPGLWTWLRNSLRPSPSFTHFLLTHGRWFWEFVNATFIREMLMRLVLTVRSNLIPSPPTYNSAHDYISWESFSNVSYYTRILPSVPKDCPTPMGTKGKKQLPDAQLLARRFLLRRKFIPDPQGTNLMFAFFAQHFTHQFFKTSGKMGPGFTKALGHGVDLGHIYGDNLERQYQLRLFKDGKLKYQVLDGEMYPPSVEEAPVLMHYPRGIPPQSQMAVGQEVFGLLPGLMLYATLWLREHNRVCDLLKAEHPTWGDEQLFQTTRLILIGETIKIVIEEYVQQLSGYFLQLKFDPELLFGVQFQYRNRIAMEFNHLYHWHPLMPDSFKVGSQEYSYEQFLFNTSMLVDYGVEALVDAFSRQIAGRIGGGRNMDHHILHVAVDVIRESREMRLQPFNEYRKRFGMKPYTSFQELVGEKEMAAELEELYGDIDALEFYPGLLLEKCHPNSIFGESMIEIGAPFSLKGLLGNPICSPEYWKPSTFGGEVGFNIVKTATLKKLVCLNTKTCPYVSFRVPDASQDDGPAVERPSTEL
Test: Human whole blood assay, COX-1 (clotting-induced TxB2 production)
Assay type: cell-based
Details: Table III, read-out: COX-1 (IC50) HWB
From the text: as §1
B. COX-1 (Clotting-induced TxB2 production)
Fresh blood is collected into vacutainers containing no anticoagulants. Aliquots of 500 μL are immediately transferred to siliconized microcentrifuge tubes preloaded with 2 μL of either DMSO or a test compound at final concentrations varying from 10 nM to 30 μM. The tubes are vortexed and incubated at 37° C. for 1 hour to allow blood to clot. At the end of incubation, serum is obtained by centrifugation (12,000×g for 5 min.). A 100 μL aliquot of serum is mixed with 400 μL of methanol for protein precipitation.

IC50 [µM] | SMILES
58.3 | CC1(C)OC(=O)C(OC2CCCCC2)=C1c1ccc(S(C)(=O)=O)cc1 [Example 14, 3-Cyclohexyloxy-5,5-dimethyl-4-(4-(methylsulfonyl)phenyl)-5H-furan-2-one]
6.1 | CC1(C)OC(=O)C(Oc2cc(F)cc(F)c2)=C1c1ccc(S(C)(=O)=O)cc1 [Example 3, 3-(3,5-Difluorophenoxy)-5,5-dimethyl-4-(4-(methylsulfonyl)phenyl)-5H-furan-2-one]

Target: T1, COX-2
Test: cell-based
Details: Table IV; CHO[hCOX-2] cells, 10 μM AA
Method: Chinese hamster ovary (CHO) cell lines which have been stably transfected with an eukaryotic expression vector pCDNAIII containing either the human COX-1 or COX-2 cDNA's are used for the assay. These cell lines are referred to as CHO [hCOX-1] and CHO [hCOX-2], respectively. […] Cells (0.3×10^6 cells in 200 μl) are preincubated with 3 μl of the test drug or DMSO vehicle for 15 min at 37° C. […] Cells are then challenged in the presence or absence of drug with the AA/HBSS solution to yield a final concentration of 0.5 μM AA in the CHO[hCOX-1] assay and a final concentration of 10 μM AA in the CHO[hCOX-2] assay. […] The samples are centrifuged at 300×g at 4° C. for 10 min, and an aliquot of the clarified supernatant is appropriately diluted for the determination of PGE2 levels using an enzyme-linked immunoassay for PGE2 (Correlate PGE2 enzyme immunoassay kit, Assay Designs, Inc.). Cyclooxygenase activity in the absence of test compounds is determined as the difference in PGE2 levels of cells challenged with arachidonic acid versus the PGE2 levels in cells mock-challenged with ethanol vehicle. Inhibition of PGE2 synthesis by test compounds is calculated as a percentage of the activity in the presence of drug versus the activity in the positive control samples.

IC50 [µM] | SMILES
0.98 | CC1(C)OC(=O)C(Oc2ccc(C(C)(C)O)cc2)=C1c1ccc(S(C)(=O)=O)cc1 [Example 191]
0.55 | Cc1ncc(OC2=C(c3ccc(S(C)(=O)=O)cc3)C(C)(C)OC2=O)cc1Br [Example 137]
> 5 | CC1(C)OC(=O)C(Oc2cccc(C(F)(F)F)c2)=C1c1ccc(S(C)(=O)=O)cc1 [Example 110]

Target: T2, COX-1
Test: biochemical
Assay type: biochemical
Details: Table III; U937
Method: Compounds are tested as inhibitors of cyclooxygenase activity in whole cell cyclooxygenase assays. Both of these assays measure prostaglandin E2 synthesis in response to arachidonic acid, using a radioimmunoassay. Cells used for these assays are human osteosarcoma 143 cells (which specifically express COX-2) and human U-937 cells (which specifically express COX-1). In these assays, 100% activity is defined as the difference between prostaglandin E2 synthesis in the absence and presence of arachidonate.
U 937 cells are pelleted by centrifugation at 500×g for 5 min and washed once with phosphate-buffered saline and repelleted. Cells are resuspended in homogenization buffer consisting of 0.1 M Tris-HCl, pH 7.4, 10 mM EDTA, 2 μg/ml leupeptin, 2 μg/ml soybean trypsin inhibitor, 2 μg/ml aprotinin and 1 mM phenyl methyl sulfonyl fluoride. The cell suspension is sonicated 4 times for 10 sec and is centrifuged at 10,000×g for 10 min at 4° C. The supernatant is centrifuged at 100,000×g for 1 hr at 4 ° C. The 100,000×g microsomal pellet is resuspended in 0.1 M Tris-HCl, pH 7.4, 10 mM EDTA to approximately 7 mg protein/ml and stored at -80° C.
Microsomal preparations are thawed immediately prior to use, subjected to a brief sonication, and then diluted to a protein concentration of 125 μg/ml in 0.1 M Tris-HCl buffer, pH 7.4 containing 10 mM EDTA, 0.5 mM phenol, 1 mM reduced glutathione and 1 μM hematin. Assays are performed in duplicate in a final volume of 250 μl. Initially, 5 μd of DMSO vehicle or drug in DMSO are added to 20 μl of 0.1 M Tris-HCl buffer, pH 7.4 containing 10 mM EDTA in wells of a 96-deepwell polypropylene titre plate. 200 μl of the microsomal preparation are then added and pre-incubated for 15 min at room temperature before addition of 25 μl of […] in 0.1 M Tris-HCl and 10 mM EDTA, pH 7.4. […] Cyclooxygenase activity is defined as the difference between PGE2 levels in samples incubated in the presence of arachidonic acid and ethanol vehicle.

IC50 [µM] | SMILES
~10 | CC1(C)OC(=O)C(Oc2ccccn2)=C1c1ccc(S(C)(=O)=O)cc1 [Example 26, 3-(2-pyridyloxy)-5,5-dimethyl-4-(4-(methylsulfonyl)phenyl)-5H-furan-2-one]
> 10 | CC1(C)OC(=O)C(OC2CCCCC2)=C1c1ccc(S(C)(=O)=O)cc1 [Example 14, 3-Cyclohexyloxy-5,5-dimethyl-4-(4-(methylsulfonyl)phenyl)-5H-furan-2-one]
> 1 | NS(=O)(=O)c1ccc(C2=C(Sc3ccccc3)C(=O)OC23CCCC3)cc1 [Example 22, 4-(2-Oxo-3-phenylthio-1-oxa-spiro[4,4]non-3-en-4-yl)benzene-sulfonamide]
> 10 | CC1(C)OC(=O)C(Cc2ccccc2)=C1c1ccc(S(C)(=O)=O)cc1 [Example 16, 3-Benzyl-5,5-dimethyl-4-(4-(methylsulfonyl)phenyl)-5H-furan-2-one]
1 | CC1(C)OC(=O)C(Oc2ccc(Cl)c(Cl)c2)=C1c1ccc(S(C)(=O)=O)cc1 [Example 7, 3-(3,4-Dichlorophenoxy)-5,5-dimethyl-4-(4-(methylsulfonyl)phenyl)-5H-furan-2-one]
0.4 | CC1(C)OC(=O)C(Oc2ccc(Cl)cc2)=C1c1ccc(S(C)(=O)=O)cc1 [Example 6, 3-(4-Chlorophenoxy)-5,5-dimethyl-4-(4-(methylsulfonyl)phenyl)-5H-furan-2-one]
> 10 | CC1(C)OC(=O)C(C(O)c2ccc(F)c(F)c2)=C1c1ccc(S(C)(=O)=O)cc1 (centres unmarked) [Example 17, 3-(3,4-Difluorophenylhydroxymethyl)-5,5-dimethyl-4-(4-(methylsulfonyl)phenyl)-5H-furan-2-one]
> 10 | CN(C1=C(c2ccc(S(C)(=O)=O)cc2)C(C)(C)OC1=O)c1ccccc1 [Example 13, 3-(N-Methyl-N-phenylamino)-5,5-dimethyl-4-(4-(methylsulfonyl)phenyl)-5H-furan-2-one]
0.3 | CC1(C)OC(=O)C(Oc2ccc(F)cc2F)=C1c1ccc(S(C)(=O)=O)cc1 [Example 5, 3-(2,4-Difluorophenoxy)-5,5-dimethyl-4-(4-(methylsulfonyl)phenyl)-5H-furan-2-one]
> 10 | Cc1cccc(OC2=C(c3ccc(S(C)(=O)=O)cc3)C(C)(C)OC2=O)n1 [Example 27, 3-(6-Methyl-2-pyridyloxy)-5,5-dimethyl-4-(4-(methylsulfonyl)phenyl)-5H-furan-2-one]
> 10 | CC1(C)OC(=O)C(Sc2cc(F)cc(F)c2)=C1c1ccc(S(C)(=O)=O)cc1 [Example 10, 3-(3,5-Difluorophenylthio)-5,5-dimethyl-4-(4-(methylsulfonyl)phenyl)-5H-furan-2-one]
0.3 | CC1(C)OC(=O)C(Oc2ccc(F)cc2)=C1c1ccc(S(C)(=O)=O)cc1 [Example 8, 3-(4-Fluorophenoxy)-5,5-dimethyl-4-(4-(methylsulfonyl)phenyl)-5H-furan-2-one]
> 10 | CC1(C)OC(=O)C(Sc2ccc(F)cc2)=C1c1ccc(S(C)(=O)=O)cc1 [Example 9, 3-(4-Fluorophenylthio)-5,5-dimethyl-4-(4-(methylsulfonyl)phenyl)-5H-furan-2-one]
> 10 | CS(=O)(=O)c1ccc(C2=C(Sc3ccccc3)C(=O)OC23CCCC3)cc1 [Example 21, 4-(4-(Methylsulfonyl)phenyl)-3-phenylthio-1-oxaspiro[4.4]non-3-en-2-one]
0.3 | CS(=O)(=O)c1ccc(C2=C(Oc3ccccc3)C(=O)OC23CCCC3)cc1 [Example 20, 4-(4-(Methylsulfonyl)phenyl)-3-phenoxy-1-oxaspiro[4.4]non-3-en-2-one]
> 10 | CC1(C)OC(=O)C(C(=O)c2ccccc2)=C1c1ccc(S(C)(=O)=O)cc1 [Example 19b, 3-Benzoyl-5,5-dimethyl-4-(4-(methylsulfonyl)phenyl)-5H-furan-2-one]
> 30 | CC1(C)OC(=O)C(Cc2ccc(F)cc2)=C1c1ccc(S(C)(=O)=O)cc1 [Example 23, 3-(4-Fluorobenzyl)-5,5-dimethyl-4-(4-(methylsulfonyl)phenyl)-5H-furan-2-one]
> 10 | CC1(C)OC(=O)C(Nc2ccccc2)=C1c1ccc(S(C)(=O)=O)cc1 [Example 12, 3-(N-Phenylamino)-5,5-dimethyl-4-(4-(methylsulfonyl)phenyl)-5H-furan-2-one]
> 30 | CC1(C)OC(=O)C(C(=O)c2ccc(F)c(F)c2)=C1c1ccc(S(C)(=O)=O)cc1 [Example 18, 3-(3,4-Difluorobenzoyl)-5,5-dimethyl-4-(4-(methylsulfonyl)phenyl)-5H-furan-2-one]
3 | CC1(C)OC(=O)C(Oc2cccc(F)c2)=C1c1ccc(S(C)(=O)=O)cc1 [Example 2, 3-(3-Fluorophenoxy)-5,5-dimethyl-4-(4-(methylsulfonyl)phenyl)-5H-furan-2-one]
